Drawing on US20240383882A1 (Ecstasy LLC, priority 2020, published 2024), this text covers ED50 for 32 molecules.

Structures can show the parent of a compound that is named as a salt. Where only a bound is given, the exact number is not on record here.

For the first assay, the system named is male C57BL/6 mice. The assay is described as follows: 55° C. warm-water tail-flick test (antinociception). In kind it is in vivo. The settings on record: Mus musculus, sc, 0.5 h, compounds of Table I; s.c.; 30 min; 55° C. water; configuration tested as in Table II; read-out: ED50 (mg/kg) at 30 min on C57BL/6 mice in Warm-water Tail-flick Test. How it is done: Antinociception was assessed using the 55° C. warm-water tail-flick test. The latency to the first sign of a rapid tail flick was taken as the behavioral endpoint. Each mouse was first tested for baseline latency by immersing its tail in the water and recording the time to response. Mice not responding within 2 secs were excluded from further testing. Responsive mice were then s.c. administered the test compound and tested for antinociception at 30 min, 60 min, 90 min, and 120 min time points afterward. Antinociception was calculated using the following formula: percentage of antinociception=100×(test latency−control latency)/(20−control latency).
The following new compounds were also made and tested to determine the half maximal possible effective dose, or ED50 (mg/kg), in mice, using one of: the warm water tail-flick test as in Table II, spared nerve injury, chronic constriction injury, or Complete Freund's adjuvant induced inflammatory pain. The symbols in the last column are: + indicates ED 50>50 mg/kg; ++ indicates ED 50 is less than or equal to 30 mg/kg.
On to `CCOCC1(CCc2ccc(F)cc2)CCN(Cc2ccccc2)C1` (stereo in doubt) [Compound 4, (S)-1-benzyl-3-(ethoxymethyl)-3-(4-fluorophenethyl) pyrrolidine], for which the ED50 was at most 30 mg/kg.
On the same count and under the same terms, the figure for `Cc1ccc(C(C)(C)N2CCC(CCc3ccc(F)s3)(CNS(=O)(=O)O)C2)cn1` (single isomer, unassigned) [Compound 322] is at most 30 mg/kg; for `CCOCC1(CCc2ccc(F)cc2)CCN(Cc2cncc(F)c2)C1` (single isomer, unassigned) [Compound 45] it is over 50 mg/kg.
In the case of `Cc1ccc(C(C)(C)N2CCC(CCc3ccc(F)s3)(c3ncc(C(C)(C)C)[nH]3)C2)cn1` (single isomer, unassigned) [Compound 282], the ED50 was at most 30 mg/kg.
On the same count and under the same terms, the figure for `Cc1ccc(C(C)(C)N2CCC(CCc3cccs3)(c3nnc(C)s3)C2)cn1` (single isomer, unassigned) [Compound 24] is at most 30 mg/kg; for `Cc1ccc(C(C)(C)N2CCC(CCc3cccs3)(C3OCCc4ccccc43)C2)cn1` (single isomer, unassigned) [Compound 87, 5-(2-((R or S)-3-((S or R)-isochroman-1-yl)-3-(2-(thiophen-2-yl)ethyl)pyrrolidin-1-yl)propan-2-yl)-2-methylpyridine citrate] it is at most 30 mg/kg; for `Cc1ccc(C(C)(C)N2CCC(CCc3ccc(F)s3)(CN3CCOCC3)C2)cn1` (single isomer, unassigned) [Compound 106] it is at most 30 mg/kg.
On the same count and under the same terms, then `OCC1(CCc2ccc(F)cc2)CCN(Cc2cccnc2)C1` (single isomer, unassigned) [Compound 44], with at most 30 mg/kg.
Turning to `CCC(C)(c1ccc(C)nc1)N1CCC(CCc2cccs2)(C2OCCc3ccccc32)C1` (single isomer, unassigned) [Compound 89, 5-(2-((R or S)-3-((S or R)-isochroman-1-yl)-3-(2-(thiophen-2-yl)ethyl)pyrrolidin-1-yl)butan-2-yl)-2-methylpyridine citrate], the ED50 is at most 30 mg/kg.

Still in this assay, the particulars now being: Mus musculus, sc, 0.5 h, compounds of Table III; s.c.; 30 min; 55° C. water; configuration tested as in Table IV; read-out: ED50 (mg/kg) at 30 min on C57BL/6 mice in Warm-water Tail-flick Test (same as Table II).
As to `CCOCC1(CCc2ccc(F)cc2)CCN(Cc2ccccc2)C1` (stereo in doubt) [Compound 4, (S)-1-benzyl-3-(ethoxymethyl)-3-(4-fluorophenethyl) pyrrolidine], the ED50 was over 50 mg/kg.

Still in this assay, the particulars now being: Mus musculus, sc, 0.5 h, compounds of Table V; s.c.; 30 min; 55° C. water; read-out: ED50 (mg/kg) at 30 min on C57BL/6 mice in Warm-water Tail-flick Test (same conditions as Table II).
As for `CCOCC1(CCc2ccc(F)cc2)CCN(Cc2ccccc2)C1` (stereo in doubt) [Compound 4, (S)-1-benzyl-3-(ethoxymethyl)-3-(4-fluorophenethyl) pyrrolidine], the ED50 was at most 30 mg/kg.

The same assay, now with this note: Mus musculus; half maximal effective dose in mice; using one of: warm water tail-flick test, spared nerve injury, chronic constriction injury, or Complete Freund's adjuvant induced inflammatory pain (not stated which per compound); read-out: Biological Activity (ED50).
In the case of `CC(C)(c1ccccn1)N1CC[C@](CO)(CCc2ccc(C#N)c(F)c2)C1` [Compound 110, (R)-2-fluoro-4-(2-(3-(hydroxymethyl)-1-(2-(pyridin-2-yl)propan-2-yl)pyrrolidin-3-yl)ethyl) benzonitrile], the ED50 was at most 30 mg/kg.
The same measure, in the same setting: the figure for `CC(C)C(O)[C@]1(CCc2ccc(C#N)cc2)CCN(C(C)(C)c2ccccn2)C1` (single isomer, unassigned) [Compound 61] is over 50 mg/kg; for `CCOCC1(CCc2ccc(F)cc2)CCN(Cc2ccccc2)C1` (stereo in doubt) [Compound 4, (S)-1-benzyl-3-(ethoxymethyl)-3-(4-fluorophenethyl) pyrrolidine] it is over 50 mg/kg; for `CC(O)[C@]1(CCc2ccc(F)cc2)CCN(C(C)(C)c2ccc(S(C)(=O)=O)cc2)C1` (single isomer, unassigned) [Compound 38, (R or S)-1-((R)-3-(4-fluorophenethyl)-1-(2-(4-(methylsulfonyl)phenyl)propan-2-yl)pyrrolidin-3-yl)ethan-1-ol] it is over 50 mg/kg.
The same measure, in the same setting: then `CC(C)(c1ccc(S(C)(=O)=O)cc1)N1CC[C@@](CCc2ccc(F)cc2)(COCc2ccccc2)C1` [Compound 33, (R)-3-((benzyloxy)methyl)-3-(4-fluorophenethyl)-1-(2-(4-(methylsulfonyl)phenyl)propan-2-yl)pyrrolidine], with over 50 mg/kg.
Still for that read-out and setting: the figure for `CC(C)(c1ccccn1)N1CC[C@@](CCc2ccc3nonc3c2)(c2nn[nH]n2)C1` [Compound 181, (R)-5-(2-(1-(2-(pyridin-2-yl)propan-2-yl)-3-(2H-tetrazol-5-yl)pyrrolidin-3-yl)ethyl) benzo[c] [1,2,5]oxadiazole] is over 50 mg/kg; for `CC(C)(c1ccccn1)N1CC[C@](CO)(CCc2ccc3ccoc3c2)C1` [Compound 168, (R)-(3-(2-(benzofuran-6-yl)ethyl)-1-(2-(pyridin-2-yl)propan-2-yl)pyrrolidin-3-yl)methanol] it is at most 30 mg/kg.
With `Cc1ccc(N(C)N2CC[C@@](CO)(CCc3ccccc3)C2)cn1` [Compound 68], the ED50 is over 50 mg/kg.
Regarding `N#Cc1ccc(CC[C@@]2(C3CCO3)CCN(Cc3cccnc3)C2)cc1` (single isomer, unassigned) [Compound 11, 4-(2-((R)-3-((R or S)-oxetan-2-yl)-1-(pyridin-3-ylmethyl)pyrrolidin-3-yl)ethyl) benzonitrile], the ED50 is at most 30 mg/kg.
The same measure, in the same setting: the figure for `CCOC[C@]1(CCc2ccc(C#N)cc2)CCN(C(c2cccnc2)c2cccnc2)C1` [Compound 10, (R)-4-(2-(1-(di(pyridin-3-yl)methyl)-3-(ethoxymethyl)pyrrolidin-3-yl)ethyl) benzonitrile] is over 50 mg/kg.
For the molecule `CC(C)(c1ccccn1)N1CC[C@](CCc2ccc(C#N)cc2)(C(O)C(F)(F)F)C1` (single isomer, unassigned) [Compound 223], the ED50 was over 50 mg/kg.
The same measure, in the same setting: then `CC(C)(c1ccccn1)N1CC[C@@](CCc2ccc3ccoc3c2)(C(N)=O)C1` [Compound 174, (R)-3-(2-(benzofuran-6-yl)ethyl)-1-(2-(pyridin-2-yl)propan-2-yl)pyrrolidine-3-carboxamide], with at most 30 mg/kg; and `CC(C)(c1ccccn1)N1CC[C@@](CCc2ccc3nonc3c2)(COCc2ccccc2)C1` [Compound 163, (R)-5-(2-(3-((benzyloxy)methyl)-1-(2-(pyridin-2-yl)propan-2-yl)pyrrolidin-3-yl)ethyl)benzo[c] [1,2,5]oxadiazole], with over 50 mg/kg.
The same measure, in the same setting: the figure for `CC(C)c1nc(C(C)(C)N2CC[C@@](CCc3ccc(C#N)cc3)(C3CCCO3)C2)cs1` (single isomer, unassigned) [Compound 30, 4-(2-((R)-1-(2-(2-isopropylthiazol-4-yl)propan-2-yl)-3-((R or S)-tetrahydrofuran-2-yl)pyrrolidin-3-yl)ethyl) benzonitrile] is over 50 mg/kg; for `CCOC(C(F)(F)F)(C(F)(F)F)[C@]1(COCc2ccccc2)CCN(C(C)(C)c2ccns2)C1` [Compound 23, (R)-5-(2-(3-((benzyloxy)methyl)-3-(2-ethoxy-1,1,1,3,3,3-hexafluoropropan-2-yl)pyrrolidin-1-yl)propan-2-yl)isothiazole] it is over 50 mg/kg.
Same read-out and setting: then `N#Cc1ccc(CC[C@@]2(C3OCC3(F)F)CCN(Cc3ccc(Cl)cc3)C2)cc1` (single isomer, unassigned) [Compound 199, 4-(2-((R)-1-(4-chlorobenzyl)-3-((R or S)-3,3-difluorooxetan-2-yl)pyrrolidin-3-yl)ethyl) benzonitrile], with at most 30 mg/kg; and `CC(C)(O)[C@@]1(CCc2ccc(C#N)cc2)CCN(C(c2ccc(F)cc2)c2cccnc2)C1` (single isomer, unassigned) [Compound 71], with over 50 mg/kg; and `CCOC[C@]1(CCc2cccc(C#N)c2)CCN(C(C)(C)c2ccccn2)C1` [Compound 128, (R)-3-(2-(3-(ethoxymethyl)-1-(2-(pyridin-2-yl)propan-2-yl)pyrrolidin-3-yl)ethyl) benzonitrile], with over 50 mg/kg.
Consider `CC(C)(c1ccccn1)N1CC[C@@](CCc2ccc(C#N)s2)(COCc2ccccc2)C1` [Compound 141, (R)-5-(2-(3-((benzyloxy)methyl)-1-(2-(pyridin-2-yl)propan-2-yl)pyrrolidin-3-yl)ethyl)thiophene-2-carbonitrile], for which the ED50 is at most 30 mg/kg.
Same read-out and setting: the figure for `CCOC(C(F)(F)F)(C(F)(F)F)[C@]1(CCc2ccc(C)cc2)CCN(C(C)(C)c2ccc(C)nc2)C1` [Compound 7, (R)-5-(2-(3-(2-ethoxy-1,1,1,3,3,3-hexafluoropropan-2-yl)-3-(4-methylphenethyl)pyrrolidin-1-yl)propan-2-yl)-2-methylpyridine] is over 50 mg/kg; for `Cc1ccc(C(C)(C)N2CC[C@@](CCc3ccc(C#N)cc3)(COS(C)=O)C2)cn1` (stereo partly drawn) [Compound 20, ((R)-3-(4-cyanophenethyl)-1-(2-(6-methylpyridin-3-yl)propan-2-yl)pyrrolidin-3-yl)methyl methanesulfinate] it is at most 30 mg/kg.
Still for that read-out and setting: then `CC(C)(c1ccccn1)N1CC[C@@](CCc2ccc(C#N)cc2)(c2nn[nH]n2)C1` [Compound 182, (R)-4-(2-(1-(2-(pyridin-2-yl)propan-2-yl)-3-(2H-tetrazol-5-yl)pyrrolidin-3-yl)ethyl) benzonitrile], with over 50 mg/kg; and `CC(C)(c1ccccn1)N1CC[C@@](CCc2ccc(C#N)cc2)(C(C)(C)O)C1` [(R)-4-(2-(3-(2-hydroxypropan-2-yl)-1-(2-(pyridin-2-yl)propan-2-yl)pyrrolidin-3-yl)ethyl) benzonitrile], with over 50 mg/kg.
Same read-out and setting: then `CC(C)(c1ccccn1)N1CC[C@@](CCc2ccc(C#N)s2)(C(O)(C(F)(F)F)C(F)(F)F)C1` [Compound 160, (R)-5-(2-(3-(1,1,1,3,3,3-hexafluoro-2-hydroxypropan-2-yl)-1-(2-(pyridin-2-yl)propan-2-yl)pyrrolidin-3-yl)ethyl)thiophene-2-carbonitrile], with over 50 mg/kg.
